# Patent US9982005B2, “Macrolides and methods of their preparation and use” (President and Fellows of Harvard College, priority 2013, dated 2018)
# Like-named read-outs stand apart in the source and are kept apart here.
# Columns and labels:
# Type in all cases: cell-based
# [1] = test system: SA506 S. aureus ermA positive msrA unknown; test: broth dilution MIC, S. aureus SA506; details: Staphylococcus aureus
# Summary of the method: (§1)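 Broth dilution (CLSI standard) gave the minimum inhibitory concentrations. Resistance genotypes in the panel can be constitutive or inducible.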
# [2] = test system: Spn1533 S. pneumoniae ermB positive mefA positive; test: broth dilution MIC, S. pneumoniae Spn1533; details: Streptococcus pneumoniae
# Summary of the method: as §1
# [3] = test system: Spn 106 S. pneumonia ATCC49619; test: broth dilution MIC, S. pneumoniae Spn 106; details: Streptococcus pneumoniae
# Summary of the method: as §1
# [4] = test system: Spn1537 S. pneumoniae ermB positive mefA positive; test: broth dilution MIC, S. pneumoniae Spn1537; details: Streptococcus pneumoniae
# Summary of the method: as §1
# [5] = test system: SA1708 S. aureus ermA positive msrA negative; test: broth dilution MIC, S. aureus SA1708; details: Staphylococcus aureus
# Summary of the method: as §1
# EC882 E. coli imp = test: broth dilution MIC, E. coli EC882; details: Escherichia coli
# Summary of the method: as §1
# [6] = test system: BS1723 B. subtilis BS168 WT wild type; test: broth dilution MIC, B. subtilis BS1723; details: Bacillus subtilis, BS1723 B. subtilis BS168 WT wild type; read-out: MIC
# Summary of the method: as §1
# [7] = test system: HI175 H. influenzae ATCC49247; test: broth dilution MIC, H. influenzae HI175; details: Haemophilus influenzae
# Excerpt: (§2) We have collected MIC data for a total of 50 novel macrolides that this platform has produced against over 21 unique strains of B. subtilis, E. coli, S. aureus, S. pneumoniae, and H. influenzae, including several multidrug-resistant strains, with a special focus on macrolide resistant mechanisms (vide supra). Azithromycin was included as a control macrolide. CLSI standard procedures for broth dilution MIC determination were used. […] These genotypes can be constitutive or inducible. The finding that C4-epi (unnatural) isomers of the “azaketolide” macrolide class have enhanced activities relative to C4 natural isomers is very exciting.
# [8] = test system: SA557 S. aureus ermA unknown msrA positive; test: broth dilution MIC, S. aureus SA557; details: Staphylococcus aureus; SA557 S. aureus ermA unknown msrA positive; read-out: MIC
# Summary of the method: as §1
# [9] = test system: Spn1427 S. pneumoniae ermB positive mefA negative; test: broth dilution MIC, S. pneumoniae Spn1427; details: Streptococcus pneumoniae
# Summary of the method: as §1
# [10] = test system: SA1707 S. aureus ermA negative msrA positive; test: broth dilution MIC, S. aureus SA1707; details: Staphylococcus aureus
# Summary of the method: as §1
# HI281 H. influenzae = test: broth dilution MIC, H. influenzae HI281; details: Haemophilus influenzae
# Excerpt: as §2
# BS1725 B. subtilis ermC = test: broth dilution MIC, B. subtilis BS1725; details: Bacillus subtilis, BS1725 B. subtilis ermC (+ery)
# Summary of the method: as §1
# [11] = test system: SA183 S. aureus ermA positive msrA unknown; test: broth dilution MIC, S. aureus SA183; details: Staphylococcus aureus
# Summary of the method: as §1
# [12] = test system: SA101 S. aureus ATCC29213; test: broth dilution MIC, S. aureus SA101; details: Staphylococcus aureus, ATCC29213, SA101 S. aureus ATCC29213; read-out: MIC
# Summary of the method: as §1
# [13] = test system: SA418 S. aureus ermA negative msrA positive; test: broth dilution MIC, S. aureus SA418; details: Staphylococcus aureus
# Summary of the method: as §1
# EC878 E. coli tolC = test: broth dilution MIC, E. coli EC878; details: Escherichia coli
# Summary of the method: as §1
# [14] = test system: Spn1509 S. pneumoniae ermB positive mefA negative; test: broth dilution MIC, S. pneumoniae Spn1509; details: Streptococcus pneumoniae; Spn1509 S. pneumoniae ermB positive mefA negative; read-out: MIC
# Summary of the method: as §1
# [15] = test system: Spn160 S. pneumoniae ermB unknown mefA positive; test: broth dilution MIC, S. pneumoniae Spn160; details: Streptococcus pneumoniae; Spn160 S. pneumoniae ermB unknown mefA positive; read-out: MIC
# Summary of the method: as §1
# EC107 E. coli ATCC25922 = test: broth dilution MIC, E. coli EC107; details: Escherichia coli, read-out: MIC
# Summary of the method: as §1
# A. baumannii strains = test: MIC against A. baumannii strains (Table M8); details: Acinetobacter baumannii, BAA747, A. baumannii BAA747-1
# S. pneumoniae strains = test: MIC against S. pneumoniae strains (Tables M7, M8); details: for MIC: Streptococcus pneumoniae
# Excerpt: CLSI standard procedures for broth dilution MIC determination were used. […] These genotypes can be constitutive or inducible.
# E. coli strains = test: MIC against E. coli strains (Table M7); details: Escherichia coli, ATCC25922, E. coli ATCC 25922
# Summary of the method: as §1
# H. influenzae strains = test: MIC against H. influenzae strains (Table M8); details: Haemophilus influenzae
# Summary of the method: as §1
# S. aureus strains = test: MIC against S. aureus strains (Table M7); details: for MIC: Staphylococcus aureus
# Summary of the method: as §1
# E. faecalis strains = test: MIC against E. faecalis strains (Table M8); details: Enterococcus faecalis, E. faecalis 29212
# K. pneumoniae strains = test: MIC against K. pneumoniae strains (Table M8); details: Klebsiella pneumoniae, K. pneumoniae 10031
SMILES,MIC [1] [µg/mL],MIC [2] [µg/mL],MIC [4] [µg/mL],MIC [5] [µg/mL],MIC [7] [µg/mL],MIC [8] [µg/mL],MIC [9] [µg/mL],MIC [10] [µg/mL],MIC (HI281 H. influenzae) [µg/mL],MIC [11] [µg/mL],MIC [12] [µg/mL],MIC [13] [µg/mL],MIC [14] [µg/mL],MIC [15] [µg/mL],also measured
CC[C@H]1OC(=O)C(C)C(=O)[C@@H](C)[C@@H](O[C@@H]2OC(C)CC(N(C)C)C2O)[C@](C)(OC)C[C@@H](C)CN[C@H](C)[C@H]2N(CCCCn3cc(-c4ccccn4)nn3)C(=O)O[C@]12C (some centres unmarked) [FSM-20754],> 32,> 32,> 32,4,2,4,> 32,4,8,> 32,2,4,4,0.25,MIC ([3]; ATCC49619): 0.0625 µg/mL; MIC (EC882 E. coli imp): 0.125 µg/mL; MIC [6]: 2 µg/mL; MIC (BS1725 B. subtilis ermC): 32 µg/mL; MIC (EC878 E. coli tolC): 0.5 µg/mL; MIC (EC107 E. coli ATCC25922): 16 µg/mL
CC[C@H]1OC(=O)C(C)(F)C(=O)[C@H](C)[C@@H](O[C@@H]2OC(C)CC(N(C)C)C2O)[C@](C)(OC)C[C@@H](C)CN[C@H](C)[C@H]2N(CCCCn3cc(-c4cccc(N)c4)nn3)C(=O)O[C@]12C (some centres unmarked) [FSM-20795],> 32,16,32,0.5,1 to 2,0.25 to 0.5,1 to 2,0.5 to 1,4 to 8,> 32,0.25 to 0.5,0.5 to 1,0.125 to 0.25,0.0312,"MIC (A. baumannii strains): 16 µg/mL; MIC ([3]; Spn 106 S. pneumonia ATCC49619, read-out: MIC): ≤ 0.0156 µg/mL; MIC S. pneumoniae (1509) (S. pneumoniae strains; S. pneumoniae 1509): 1 µg/mL; MIC (S. pneumoniae strains; S. pneumoniae 160, read-out: MIC S. pneumonae (160)): ≤ 0.0625 µg/mL; MIC (S. pneumoniae strains; S. pneumoniae 1509, read-out: MIC S. pneumoniae (1509)): 0.5 µg/mL; MIC (S. pneumoniae strains; S. pneumoniae 1533, read-out: MIC S. pneumoniae (1533)): > 32 µg/mL; MIC (S. pneumoniae strains; S. pneumoniae 1537, read-out: MIC S. pneumoniae (1537)): > 32 µg/mL; MIC (S. pneumoniae strains; S. pneumoniae 49619, read-out: MIC S. pneumoniae (49619)): ≤ 0.0625 µg/mL; MIC (E. coli strains): 4 µg/mL; MIC (H. influenzae strains; H. influenzae 49247, read-out: MIC H. influenzae (49247)): 0.5 µg/mL; MIC (H. influenzae strains; H. influenzae 49766, read-out: MIC H. influenzae (49766)): 4 µg/mL; MIC S. aureus (1708) (S. aureus strains; S. aureus 1708): 0.5 µg/mL; MIC (S. aureus strains; ATCC29213, S. aureus ATCC 29213, read-out: MIC S. aureus (ATCC 29213)): 0.5 µg/mL; MIC (S. aureus strains; S. aureus 183, read-out: MIC S. aureus (183)): > 32 µg/mL; MIC (S. aureus strains; S. aureus 506, read-out: MIC S. aureus (506)): > 32 µg/mL; MIC (S. aureus strains; S. aureus 1708, read-out: MIC S. aureus (1708)): 0.25 µg/mL; MIC (S. aureus strains; USA300, S. aureus USA300, read-out: MIC S. aureus (USA300)): 1 µg/mL; MIC (E. faecalis strains): 0.125 µg/mL; MIC (K. pneumoniae strains): 2 µg/mL"
